Some results are limits rather than exact numbers.

The assay has as its target T1, human MRGPRX2 (Homo sapiens, UniProt Q96LB1).
T1 construct: expressed in transfected cells; host or cells: CHO cells, stably transfected (G418 and Hygromycin B selection)
T1 sequence (Q96LB1 1-330): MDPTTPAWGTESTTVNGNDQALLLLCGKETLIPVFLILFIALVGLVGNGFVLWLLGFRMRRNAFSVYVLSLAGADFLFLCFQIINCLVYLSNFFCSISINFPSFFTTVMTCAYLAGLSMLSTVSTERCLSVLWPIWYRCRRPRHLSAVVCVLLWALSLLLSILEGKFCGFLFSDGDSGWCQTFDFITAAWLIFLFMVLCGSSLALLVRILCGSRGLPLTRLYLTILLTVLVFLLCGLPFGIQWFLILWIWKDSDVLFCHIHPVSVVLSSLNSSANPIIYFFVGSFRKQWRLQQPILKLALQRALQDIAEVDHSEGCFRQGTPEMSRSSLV
Put plainly: MRGPRX2 activity: IP-One Gq HTRF assay in CHO cells, antagonism versus 0.3 uM Cortistatin-14. The format is cell-based. To be noted: versus 0.3 uM Cortistatin-14 agonist, CHO cells expressing human MRGPRX2, read-out: MRGPRX2 Antagonist Activity. As for the experimental part:
CHO cells stably transfected to express human MRGPRX2 were maintained in an incubator at 37° C. with 5% CO2 and grown in F12 (HAM) media with 10% fetal bovine serum (FBS), 1% Glutamax, 1% penicillin/streptomycin, 800 μg/mL Geneticin (G418), and 300 μg/mL Hygromycin B.
Cells were plated in a 384-well assay plate at 20,000 cells per well in 12 μL of Opti-MEM and kept in an incubator overnight. On the day of the assay, compounds solubilized at 10 mM in DMSO were added as a 10-point curve (30 uM final top concentration with 1:3 serial dilutions) using a Tecan D300E digital dispenser. Agonists were diluted in assay buffer (final concentrations of 5.7 mM Tris-HCl, 43 mM NaCl, 50 mM LiCl, pH=8) and 2 μL of the agonist Cortistatin-14 (CPC Scientific, catalog CORT-002) are added to each well. Final concentrations of agonists were 0.3 μM Cortistatin. Final concentrations of DMSO were kept consistent across the plate. Plates were incubated in the dark for 1 h at 37° C. and then for 1 h at room temperature. IP-1 standards and HTRF detection reagents were added according to the IP-One—Gq Kit purchased from Cisbio (part number 62IPAPEJ) and incubated in the dark for 1 h at room temperature. The plate was read on a Molecular Devices SpectraMax iD5 plate reader. The HTRF ratio was calculated from the raw data and graphed using GraphPad Prism to calculate an IC50 value for each compound.
The activity ranges are denoted as follows: “+++++” denotes antagonist activity <100 nM; “++++” denotes antagonist activity between 100 and 500 nM; “+++” denotes activity between 501 and 1000 nM; “++” denotes activity between 1001 and 2500 nM; and “+” denotes activity >2500 nM.
Turning to `O=S1(=O)N=C(NCc2ncccc2F)Nc2c1ccc(Cl)c2Oc1cccc(F)c1Cl` [Compound 1-51, 6-chloro-5-(2-chloro-3-fluorophenoxy)-3-(((3-fluoropyridin-2-yl)methyl)amino)-4H-benzo[e][1,2,4]thiadiazine 1,1-dioxide], the IC50 is less than 100 nM.

In the case of `O=S1(=O)N=C(N2CCc3cccnc3C2)Nc2c1ccc(F)c2Oc1ccccc1Cl` [Compound 1-52, 5-(2-chlorophenoxy)-3-(5,8-dihydro-1,7-naphthyridin-7(6H)-yl)-6-fluoro-4H-benzo[e][1,2,4]thiadiazine 1,1-dioxide], the IC50 is more than 2500 nM.

For `CC(C)(F)CNC1=NS(=O)(=O)c2cccc(Oc3ccccc3Cl)c2N1` [Compound 1-244, 5-(2-chlorophenoxy)-3-((2-fluoro-2-methylpropyl)amino)-4H-benzo[e][1,2,4]thiadiazine 1,1-dioxide], the IC50 fell in the range of 1000 to 2500 nM.

Turning to `O=S1(=O)N=C(NCc2ncccc2Cl)Nc2c1ccc(F)c2Oc1ccccc1Cl` [Compound 2-2, 5-(2-chlorophenoxy)-3-(((3-chloropyridin-2-yl)methyl)amino)-6-fluoro-4H-benzo[e][1,2,4]thiadiazine 1,1-dioxide], the IC50 is less than 100 nM.

For the compound `C[C@@H](NC1=NS(=O)(=O)c2ccc(F)c(Oc3ccccc3Cl)c2N1)c1ccccc1F` [Compound 2-3, (R)-5-(2-chlorophenoxy)-6-fluoro-3-((1-(2-fluorophenyl)ethyl)amino)-4H-benzo[e][1,2,4]thiadiazine 1,1-dioxide], the IC50 is more than 2500 nM.

Consider `O=S1(=O)N=C(NCc2cccc(F)n2)Nc2c1ccc(F)c2Oc1ccccc1Cl` [Compound 2-4, 5-(2-chlorophenoxy)-6-fluoro-3-(((6-fluoropyridin-2-yl)methyl)amino)-4H-benzo[e][1,2,4]thiadiazine 1,1-dioxide], for which the IC50 was less than 100 nM.

With `O=S1(=O)N=C(NCc2cccnc2F)Nc2c1ccc(F)c2Oc1ccccc1Cl` [Compound 2-5, 5-(2-chlorophenoxy)-6-fluoro-3-(((2-fluoropyridin-3-yl)methyl)amino)-4H-benzo[e][1,2,4]thiadiazine 1,1-dioxide], the IC50 lay in the range of 100 to 500 nM.

On to `O=S1(=O)N=C(NCc2cccc3ccccc23)Nc2c1ccc(F)c2Oc1ccccc1Cl` [Compound 2-6, 5-(2-chlorophenoxy)-6-fluoro-3-((naphthalen-1-ylmethyl)amino)-4H-benzo[e][1,2,4]thiadiazine 1,1-dioxide], for which the IC50 was 100 to 500 nM.

For the compound `O=S1(=O)N=C(NCc2ncccc2F)Nc2c1ccc(F)c2Oc1ccc(F)cc1` [Compound 2-7, 6-fluoro-5-(4-fluorophenoxy)-3-(((3-fluoropyridin-2-yl)methyl)amino)-4H-benzo[e][1,2,4]thiadiazine 1,1-dioxide], the IC50 lay within 100 to 500 nM.

With `O=S1(=O)N=C(NCc2ncccc2F)Nc2c1ccc(F)c2Oc1cccc(F)c1` [Compound 2-8, 6-fluoro-5-(3-fluorophenoxy)-3-(((3-fluoropyridin-2-yl)methyl)amino)-4H-benzo[e][1,2,4]thiadiazine 1,1-dioxide], the IC50 fell in the range of 100 to 500 nM.

Consider `O=S1(=O)N=C(NCc2ncccc2F)Nc2c1ccc(F)c2Oc1ccc(Cl)cc1` [Compound 2-9, 5-(4-chlorophenoxy)-6-fluoro-3-(((3-fluoropyridin-2-yl)methyl)amino)-4H-benzo[e][1,2,4]thiadiazine 1,1-dioxide], for which the IC50 was in the range of 100 to 500 nM.

On to `O=S1(=O)N=C(NCc2ncccc2F)Nc2c1ccc(F)c2Oc1cccc(Cl)c1` [Compound 2-10, 5-(3-chlorophenoxy)-6-fluoro-3-(((3-fluoropyridin-2-yl)methyl)amino)-4H-benzo[e][1,2,4]thiadiazine 1,1-dioxide], for which the IC50 was 100 to 500 nM.

Turning to `COc1ccc(Oc2c(F)ccc3c2NC(NCc2ncccc2F)=NS3(=O)=O)cc1` [Compound 2-11, 6-fluoro-3-(((3-fluoropyridin-2-yl)methyl)amino)-5-(4-methoxyphenoxy)-4H-benzo[e][1,2,4]thiadiazine 1,1-dioxide], the IC50 is 1000 to 2500 nM.

As to `N#Cc1ccc(Oc2c(F)ccc3c2NC(NCc2ncccc2F)=NS3(=O)=O)cc1` [Compound 2-12, 4-((6-fluoro-3-(((3-fluoropyridin-2-yl)methyl)amino)-1,1-dioxido-4H-benzo[e][1,2,4]thiadiazin-5-yl)oxy)benzonitrile], the IC50 lay within 1000 to 2500 nM.

For `N#Cc1cccc(Oc2c(F)ccc3c2NC(NCc2ncccc2F)=NS3(=O)=O)c1` [Compound 2-13, 3-((6-fluoro-3-(((3-fluoropyridin-2-yl)methyl)amino)-1,1-dioxido-4H-benzo[e][1,2,4]thiadiazin-5-yl)oxy)benzonitrile], the IC50 is 501 to 1000 nM.

Take `N#Cc1ccc2c(c1Oc1ccccc1F)NC(NCc1ncccc1Cl)=NS2(=O)=O` [Compound 3-1, 3-(((3-chloropyridin-2-yl)methyl)amino)-5-(2-fluorophenoxy)-4H-benzo[e][1,2,4]thiadiazine-6-carbonitrile 1,1-dioxide]: the IC50 was less than 100 nM.

For `N#Cc1ccc2c(c1Oc1ccccc1Cl)NC(NCc1ncccc1F)=NS2(=O)=O` [Compound 3-2, 5-(2-chlorophenoxy)-3-(((3-fluoropyridin-2-yl)methyl)amino)-4H-benzo[e][1,2,4]thiadiazine-6-carbonitrile 1,1-dioxide], the IC50 is less than 100 nM.

As to `O=S1(=O)N=C(NCc2ncccc2F)Nc2c1ccc(F)c2Cc1ccccc1Cl` [Compound 4-1, 5-(2-chlorobenzyl)-6-fluoro-3-(((3-fluoropyridin-2-yl)methyl)amino)-4H-benzo[e][1,2,4]thiadiazine 1,1-dioxide], the IC50 was less than 100 nM.

In the case of `O=S1(=O)N=C(NCc2cccc(F)n2)Nc2c1ccc(F)c2Cc1ccccc1Cl` [Compound 4-2, 5-(2-chlorobenzyl)-6-fluoro-3-(((6-fluoropyridin-2-yl)methyl)amino)-4H-benzo[e][1,2,4]thiadiazine 1,1-dioxide], the IC50 lay within 100 to 500 nM.

On to `O=S1(=O)N=C(NCc2cccc(Cl)c2F)Nc2c1ccc(F)c2Cc1ccccc1Cl` [Compound 4-3, 3-((3-chloro-2-fluorobenzyl)amino)-5-(2-chlorobenzyl)-6-fluoro-4H-benzo[e][1,2,4]thiadiazine 1,1-dioxide], for which the IC50 is less than 100 nM.

As to `O=S1(=O)N=C(NCc2ccccc2F)Nc2c1ccc(F)c2Cc1ccccc1Cl` [Compound 4-4, 5-(2-chlorobenzyl)-6-fluoro-3-((2-fluorobenzyl)amino)-4H-benzo[e][1,2,4]thiadiazine 1,1-dioxide], the IC50 was in the range of 100 to 500 nM.

With `O=S1(=O)N=C(NCc2ncccc2F)Nc2c1cc(F)c(F)c2Cc1ccccc1Cl` [Compound 4-5, 5-(2-chlorobenzyl)-6,7-difluoro-3-(((3-fluoropyridin-2-yl)methyl)amino)-4H-benzo[e][1,2,4]thiadiazine 1,1-dioxide], the IC50 was in the range of 100 to 500 nM.

Take `O=S1(=O)N=C(NCc2ccccc2F)Nc2c1cc(F)c(F)c2Cc1ccccc1Cl` [Compound 4-6, 5-(2-chlorobenzyl)-6,7-difluoro-3-((2-fluorobenzyl)amino)-4H-benzo[e][1,2,4]thiadiazine 1,1-dioxide]: the IC50 is 100 to 500 nM.

Take `O=S1(=O)N=C(NCc2cccnc2F)Nc2c1cc(F)c(F)c2Cc1ccccc1Cl` [Compound 4-7, 5-(2-chlorobenzyl)-6,7-difluoro-3-(((2-fluoropyridin-3-yl)methyl)amino)-4H-benzo[e][1,2,4]thiadiazine 1,1-dioxide]: the IC50 fell in the range of 1000 to 2500 nM.

In the case of `O=S1(=O)N=C(NCc2ccc(F)cc2F)Nc2c1cc(F)c(F)c2Cc1ccccc1Cl` [Compound 4-8, 5-(2-chlorobenzyl)-3-((2,4-difluorobenzyl)amino)-6,7-difluoro-4H-benzo[e][1,2,4]thiadiazine 1,1-dioxide], the IC50 is 100 to 500 nM.

Regarding `COc1ccccc1CNC1=NS(=O)(=O)c2cc(F)c(F)c(Cc3ccccc3Cl)c2N1` [Compound 4-9, 5-(2-chlorobenzyl)-6,7-difluoro-3-((2-methoxybenzyl)amino)-4H-benzo[e][1,2,4]thiadiazine 1,1-dioxide], the IC50 was in the range of 501 to 1000 nM.

On to `O=S1(=O)N=C(NCc2cc(F)ccc2F)Nc2c1cc(F)c(F)c2Cc1ccccc1Cl` [Compound 4-10, 5-(2-chlorobenzyl)-3-((2,5-difluorobenzyl)amino)-6,7-difluoro-4H-benzo[e][1,2,4]thiadiazine 1,1-dioxide], for which the IC50 lay in the range of 100 to 500 nM.

Source of the values: patent US20250170141A1, “MRGPRX2 MODULATORS AND RELATED METHODS OF TREATMENT” (Escient Pharmaceuticals, Inc., priority 2023, published 2025).
